Laboratory results taken from patent US8338422B2, “Indolin-2-ones and aza-indolin-2-ones” (Janssen Pharmaceutica NV, priority 2007, dated 2012).
Where “and” joins values, the source holds several entries; their conditions need not be identical. Identical values can stand only once.

Assays:
GSK3β (h) = GSK3β (h) (Homo sapiens, UniProt P49841); test: GSK-3β human kinase assay (SPA); assay type: biochemical; details: read-out: GSK3B pIC50 (converted)
Summary of the method: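 Radiometric SPA read-out: after EDTA stop, biotinylated 33P-labelled peptide bound streptavidin PVT beads and was imaged on Leadseeker. Reaction: 60 min, room temperature, GSK3β (h) at 1 μg/ml, 1 μM substrate peptide, 1 μM ATP with 2 nM [γ-33P]ATP, Tris pH 7.4/MgCl2/DTT buffer.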

PC-3 = test: Cellular proliferation assay (Alamar blue), PC-3; assay type: cell-based; details: Homo sapiens, PC-3, 72 h, PC-3 cells, 72 hours with compound, 10% FCS, read-out: pIC50 PC-3 (converted)
Summary of the method: (§1)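 Proliferation was assessed over 72 h of compound treatment, following 24 h of seeding without compound, under 10% FCS, 37° C. and 5% CO2. Fluorescent resazurin product was measured and compared with control cells.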

A431 = test: Cellular proliferation assay (Alamar blue), A431; assay type: cell-based; details: Homo sapiens, A-431, A431 cells, 72 hours with compound, 10% FCS, read-out: pIC50 A431 (converted)
Method: (§2) […] functional properties of these compounds was tested in cellular proliferation assays on a panel of different cell lines in the presence of 10% FCS serum (37° C. and 5% (v/v) CO2). In a first step these cells were seeded and incubated for 24 hours in the absence of compound. In the second step the cells were incubated for 72 hours with the compounds to be tested for 72 hours. The viable cell number was finally assessed in a standard Alamar blue cell viability assay.
(§3) The viable cell number was assessed by incubation for either 4 h (HCT-116, H1299, H460) 6 h (SKOV3, HT29, U87-MG, Colo205) or 24 h (A2780, PC3, MDA-MB-231, A549, MCF-7) with Alamar blue (Resazurin 9 μg/ml, K-Ferrocyanide 90 μM K-Ferricyanide 90 μM) and the converted fluorescent product was quantified on a fluorescent plate readed (544 nm/590 nm). Effect of the compounds is calculated as of on control cells.

SKOV3 = test: Cellular proliferation assay (Alamar blue), SKOV3; assay type: cell-based; details: Homo sapiens, SK-OV-3, SKOV3 cells, 72 hours with compound, 10% FCS, read-out: pIC50 SKOV3 (converted)
Summary of the method: as §1

A2780 = test: Cellular proliferation assay (Alamar blue), A2780; assay type: cell-based; details: Homo sapiens, A2780, 72 h, A2780 cells, 72 hours with compound, 10% FCS, read-out: pIC50 A2780 (converted)
Summary of the method: as §1

U87MG = test: Cellular proliferation assay (Alamar blue), U87MG; assay type: cell-based; details: Homo sapiens, U-87 MG, 72 h, U87MG cells, 72 hours with compound, 10% FCS, read-out: pIC50 U87MG (converted)
Summary of the method: as §1

AuroraB (h) = AuroraB (h) (Homo sapiens, UniProt Q96GD4); test: Aurora-B human kinase assay (SPA); assay type: biochemical; details: read-out: AuroraB pIC50 (converted)
Summary of the method: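 Scintillation proximity assay: AuroraB (h) at 0.5 μg/ml with 3 μM biotinylated peptide, 0.5 μM ATP and 2.2 nM [γ-33P]ATP in 60 mM Hepes pH 7.5, 3 mM MgCl2, 3 mM MnCl2, 2 mM DTT. 60 min at room temperature, EDTA stop, streptavidin PVT beads read on Leadseeker.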

MCF-7 = test: Cellular proliferation assay (Alamar blue), MCF-7; assay type: cell-based; details: Homo sapiens, MCF7, MCF-7 cells, 72 hours with compound, 10% FCS, read-out: pIC50 MCF-7 (converted)
Method: as §2, §3

Chain of GSK3β (h) (P49841 whole entry): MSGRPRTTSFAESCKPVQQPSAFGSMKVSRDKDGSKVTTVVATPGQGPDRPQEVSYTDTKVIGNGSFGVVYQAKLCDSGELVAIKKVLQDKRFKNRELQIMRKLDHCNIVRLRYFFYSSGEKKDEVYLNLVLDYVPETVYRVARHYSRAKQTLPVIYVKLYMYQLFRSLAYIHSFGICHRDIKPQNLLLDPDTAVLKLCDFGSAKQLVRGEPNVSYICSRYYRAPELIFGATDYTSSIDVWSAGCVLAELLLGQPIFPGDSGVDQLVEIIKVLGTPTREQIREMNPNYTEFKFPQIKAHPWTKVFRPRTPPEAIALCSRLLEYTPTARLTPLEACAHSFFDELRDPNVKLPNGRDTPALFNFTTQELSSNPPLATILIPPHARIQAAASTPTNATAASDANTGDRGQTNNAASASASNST
Chain of AuroraB (h) (Q96GD4 whole entry): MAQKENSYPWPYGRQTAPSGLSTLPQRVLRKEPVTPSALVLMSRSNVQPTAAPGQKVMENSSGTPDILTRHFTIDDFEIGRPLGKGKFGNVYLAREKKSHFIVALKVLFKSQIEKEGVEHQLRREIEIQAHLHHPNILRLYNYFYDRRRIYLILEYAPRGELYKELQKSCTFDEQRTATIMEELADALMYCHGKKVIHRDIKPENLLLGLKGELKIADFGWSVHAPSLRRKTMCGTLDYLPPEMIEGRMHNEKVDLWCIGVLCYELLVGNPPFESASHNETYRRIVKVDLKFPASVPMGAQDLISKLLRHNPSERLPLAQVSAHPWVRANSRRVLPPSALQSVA

IC50 (GSK3β (h))	IC50 (PC-3) [nM]	IC50 (A431) [nM]	IC50 (SKOV3) [nM]	IC50 (A2780) [nM]	IC50 (U87MG) [nM]	IC50 (AuroraB (h))	IC50 (MCF-7) [nM]	Compound
20.9 nM and 23.4 nM	457	1450	339	282	2240	50.1 nM and 51.3 nM	< 302	COc1ccc2cc1OCCCC(=O)N(C)CCCNc1ncnc3c1/C(=C/N2)C(=O)N3 [Compound 9]
891 nM	2340	> 10000	2090	–	–	> 10000 nM	5750	COc1ccc2cc1OCCCCCC(=O)N1CCN(CC1)c1ncnc3c1/C(=C/N2)C(=O)N3 [Compound 18]
309 nM and 313 nM	1660	> 10000	1350	2880	1620	1380 nM and 1580 nM	575	COc1ccc2cc1OCCCC(=O)N(C)CCCN(C)c1ncnc3c1/C(=C/N2)C(=O)N3 [Compound 31]
